Laboratory results: PubChem BioAssay AID1645863 (Buhrlage Lab, Dana-Farber Cancer Institute and Novartis …, 2021)
Calls of active or inactive are those of the source. The rule behind the calls is not given here. Where a SMILES comes first, the peptide text is derived from it. Bridges are numbered along the chain shown (N, C = ends). The star is where a group is joined. ξ: configuration not given here. Pentadecanoyl(3ξ-OH,15-Gua) = N=C(N)NCCCCCCCCCCCCC(O)CC(=O)*

The compounds below were run against Ubiquitin carboxyl-terminal hydrolase 10 (Homo sapiens) (UniProt Q14694) (assay: ubiquitin-specific protease 10 DUB inhibitors, concentration-effect, biochemical, verification of primary screen actives (AID 1645863;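 note: potency values describe inhibition of USP10 cleavage of a fluorogenic ubiquitin substrate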)). Conditions: USP10 deubiquitinase enzymatic assay.
Ubiquitin carboxyl-terminal hydrolase 10 (Homo sapiens), sequence (Q14694 whole entry, looked up): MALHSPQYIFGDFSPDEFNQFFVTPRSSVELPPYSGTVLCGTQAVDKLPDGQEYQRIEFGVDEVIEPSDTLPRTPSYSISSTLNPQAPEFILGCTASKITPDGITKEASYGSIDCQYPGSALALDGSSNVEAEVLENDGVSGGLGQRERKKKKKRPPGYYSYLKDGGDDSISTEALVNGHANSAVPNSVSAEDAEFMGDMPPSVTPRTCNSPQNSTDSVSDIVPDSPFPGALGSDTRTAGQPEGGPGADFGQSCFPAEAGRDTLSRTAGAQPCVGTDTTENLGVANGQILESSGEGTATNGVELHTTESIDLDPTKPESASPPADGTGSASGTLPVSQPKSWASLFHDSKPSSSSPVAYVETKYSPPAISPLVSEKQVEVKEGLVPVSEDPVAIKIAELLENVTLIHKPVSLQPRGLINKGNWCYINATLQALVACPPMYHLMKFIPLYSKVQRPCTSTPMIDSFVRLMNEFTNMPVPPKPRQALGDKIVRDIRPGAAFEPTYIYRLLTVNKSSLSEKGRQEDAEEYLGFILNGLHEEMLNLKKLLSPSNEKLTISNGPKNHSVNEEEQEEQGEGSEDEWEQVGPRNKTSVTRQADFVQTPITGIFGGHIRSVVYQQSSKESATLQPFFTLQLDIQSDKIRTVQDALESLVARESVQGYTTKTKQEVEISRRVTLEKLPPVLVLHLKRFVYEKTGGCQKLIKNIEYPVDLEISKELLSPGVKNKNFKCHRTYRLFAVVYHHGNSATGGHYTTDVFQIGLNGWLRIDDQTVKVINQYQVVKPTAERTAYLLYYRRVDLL
`O=c1c2cc(Br)ccc2[nH]c(=S)n1Cc1cccnc1` was tested, and the IC50 was > 40 µM (inactive). For `O=C(c1cccc2ncccc12)N1CCN(c2ccnc3cc(Cl)ccc23)CC1`, the IC50 was > 40 µM (inactive). For `COc1ccc(C(=O)NC(Cc2ccccc2)c2nc3ccccc3[nH]2)c(OC)c1` (stereo unspecified), the IC50 was > 40 µM (inactive). In the case of `Cc1ccc(CNC(=O)c2cccc(N3C(=O)N4CCc5c([nH]c6ccccc56)[C@@]4(C)C3=O)c2)cc1`, the IC50 is reported as > 40 µM (inactive). With `COC(=O)c1ccc2c(=O)n(-c3ccc(C)c(F)c3)c(N3CCC(C(N)=O)CC3)nc2c1` the IC50 was > 40 µM (inactive). In the case of `COc1cc(OC)c(NC(=O)Cn2c(=O)n(Cc3ccccc3Cl)c(=O)c3cc(OC)c(OC)cc32)cc1Cl`, the IC50 is reported as > 40 µM (inactive). `COc1cc(Cl)c(C)cc1NC(=O)Cn1c(=O)n(CC(=O)NCc2ccco2)c(=O)c2ccccc21` gave an IC50 of 16.3 µM. With `CCOc1ccc2c(c1)c(=O)c(C(=O)c1ccccc1)cn2CC(=O)Nc1ccc(OC)cc1` the IC50 was > 40 µM (inactive). In the case of `Cc1ccc2c(c1)N(C)C(=O)c1cc(NC(=O)c3ccc(F)cc3)ccc1O2`, the IC50 is reported as 12.8 µM. In the case of `Brc1ccc(Nc2nc(-c3ccccn3)nc3ccccc23)cc1`, the IC50 is reported as 21 µM. With `O=C(c1cnccn1)N1CC[C@@H]2CNS(=O)(=O)[C@@H]2CC1` the IC50 was > 40 µM (inactive). For `Cc1ccc2c(CNCCC3=CCCCC3)c(C(=O)O)n(C)c2c1`, the IC50 was > 40 µM (inactive). `O=C(CCCc1nnc2c(=O)n(-c3cccc(F)c3)ccn12)NCc1ccc(F)cc1` gave an IC50 of 35.3 µM. For `CCOc1ccc2c(c1)c(=O)c(C(=O)c1ccc(C)cc1)cn2CC(=O)Nc1ccc(C)cc1`, the IC50 was > 40 µM (inactive). `Cc1ccc2[nH]c(=O)c(CN(CC3COCCO3)S(=O)(=O)c3ccc(F)cc3)cc2c1` (stereo unspecified) was tested, and the IC50 was > 40 µM (inactive). In the case of `Cc1ccccc1-n1ccc2nc(N3CCCC3)ncc2c1=O`, the IC50 is reported as > 40 µM (inactive). In the case of `COc1ccc(OC)c(-c2cn3ccn(-c4ccc(F)c(Cl)c4)c(=O)c3n2)c1`, the IC50 is reported as 18.7 µM. Work on `COc1cccc(C(=O)Nc2ccc(SC(C)C(=O)Nc3ccc(C(N)=O)cc3)cc2)c1` (stereo unspecified) yielded an IC50 of 24.9 µM. In the case of `COc1cc2c(=O)n(CCC(=O)NC3CCCC3)c(=O)n(CC(=O)Nc3cccc(Cl)c3)c2cc1OC`, the IC50 is reported as 36.1 µM. With `Cc1nc(SCC(=O)NC(C)c2ccccc2)c2oc3ccccc3c2n1` (stereo unspecified) the IC50 was > 40 µM (inactive). In the case of `COc1ccc(CC(=O)OCC(=O)N2c3ccccc3NC(=O)C2(C)C)cc1`, the IC50 is reported as > 40 µM (inactive). Compound `O=S(=O)(Nc1cccc(O)c1)c1ccc2oc3ccc(S(=O)(=O)Nc4cccc(O)c4)cc3c2c1` has an IC50 of 14.4 µM. In the case of `CCOc1ccc(CC(=O)Nc2ccc(-c3cn4cccnc4n3)cc2)cc1`, the IC50 is reported as > 40 µM (inactive). `Cc1cc(C)c2nc3c(cc2c1)CN(Cc1ccco1)C(=O)O3` was tested, and the IC50 was > 40 µM (inactive). For `CCOc1ccccc1-c1cc(NC(=O)c2cc3ccc4cccnc4c3[nH]2)on1`, the IC50 was > 40 µM (inactive). In the case of `Cc1ccc(NC(=O)c2nnn(CC(=O)Nc3cccc(C)c3C)c2N)cc1C`, the IC50 is reported as 18.1 µM. For `CCCn1cc(C(=O)N2CCC3(CC2)CC2(CO3)Nc3ccccc3-n3cccc32)c(C)n1` (stereo unspecified), the IC50 was > 40 µM (inactive). `O=C(O)c1cccc(NC(=O)C(Sc2cccc(NC(=O)c3cccc(Cl)c3)c2)c2ccccc2)c1` (stereo unspecified) gave an IC50 of 9.91 µM. In the case of `CNc1nc2c(c(=O)n1C)CN(C(=O)Nc1cccc3ccccc13)CC2`, the IC50 is reported as > 40 µM (inactive). `Cc1ccc2[nH]c(=O)c(-c3nc4ccccn4c3NCc3ccccc3)cc2c1` was tested, and the IC50 was 23.7 µM. For `Cc1ccc(CNCc2cc3c(-c4ccc(F)cc4)nn(-c4ccccc4)c3[nH]c2=O)cc1`, the IC50 was > 40 µM (inactive). `CC(=O)Nc1ccc(Cc2nc(-c3ccc4c(c3)nc(C)c(=O)n4C3CCCC3)no2)cc1` was tested, and the IC50 was > 40 µM (inactive). With `COc1ccc(NC(=O)Cn2c(=O)n(-c3ccc(CC(=O)NCc4ccco4)cc3)c(=O)c3ccccc32)cc1Cl` the IC50 was 15.1 µM. `CCCc1ccc(C(=O)[C@@H]2[C@@H](C(=O)c3cccs3)N3c4ccc(C)cc4C(C)=C[C@@H]3[C@@]23C(=O)Nc2ccccc23)cc1` was tested, and the IC50 was > 40 µM (inactive). For `CCOC(=O)N1CCN(C(=O)c2ccc(CS(=O)c3ccccc3Cl)o2)CC1` (stereo unspecified), the IC50 was > 40 µM (inactive). `Cc1ccc(-n2cc(C(=O)NCCCc3ccccc3)nn2)cc1` showed an IC50 of 29.5 µM. With `CCCCNC(=O)C1Sc2nnc(-c3ccccc3)n2NC1c1ccccc1` (stereo unspecified) the IC50 was > 40 µM (inactive). In the case of `CSc1nc(N)c2c(n1)N[C@H]1OC[C@H](O)[C@H](O)[C@H]1N2`, the IC50 is reported as > 40 µM (inactive). For `O=C(COc1cccc(-c2noc(-c3ccc([N+](=O)[O-])cc3)n2)c1)Nc1ccccc1`, the IC50 was > 40 µM (inactive). In the case of `Cn1nc(C(=O)N2CCC(c3ccccc3)C2)c2c1-c1ccsc1CC2` (stereo unspecified), the IC50 is reported as > 40 µM (inactive). With `Cc1cccc(OCC2=NN3C(=N)/C(=C\c4cc(C)n(-c5cccc(F)c5)c4C)C(=O)N=C3S2)c1` the IC50 was > 40 µM (inactive). `CC1=C(Cn2c3cccc(=O)c-3nc3ccccc32)CCC(C)(C)C1` was tested, and the IC50 was 5.79 µM. With `O=C(Nc1ccccc1C(=O)NC1CCSC1)c1ccc([N+](=O)[O-])cc1` (stereo unspecified) the IC50 was > 40 µM (inactive). In the case of `Cc1ccc(NC(=O)CSc2ccc(NC(=O)c3ccc(C(=O)O)cc3C(=O)O)cc2)c(C)c1`, the IC50 is reported as > 40 µM (inactive). With `CC(CCc1ccccc1)NC(=O)Cn1c(=O)c2cccn2c2ccccc21` (stereo unspecified) the IC50 was > 40 µM (inactive). `COc1ccc(Cn2nc(C)cc2NC(=O)c2cccc(F)c2)cc1OC` was tested, and the IC50 was > 40 µM (inactive). `CC(C)CC(NC(=O)c1ccc(Cl)cc1Cl)c1nc2ccccc2[nH]1` (stereo unspecified) was tested, and the IC50 was > 40 µM (inactive). For `Cc1ccc(S(=O)(=O)Nc2ccccc2C(=O)Nc2nc3ccc(Br)cc3s2)cc1`, the IC50 was > 40 µM (inactive). `COc1ccc(OC)c(NC(=O)c2sc(-c3ccccc3)nc2C)c1` showed an IC50 of 37 µM. For `Cc1nc(-c2noc(-c3cccc(F)c3)n2)cn1CC(=O)Nc1ccccc1`, the IC50 was 15.8 µM. For `O=C(Cc1ccc(-n2c(=O)c3ccccc3n(CC(=O)Nc3ccc(Cl)cc3Cl)c2=O)cc1)NCc1ccco1`, the IC50 was 11.3 µM. For `COc1cc(CC(=O)Nc2ccccc2N2CCOCC2)cc(OC)c1OC`, the IC50 was > 40 µM (inactive). `C=C1C=C(CCC(=O)O)C(=O)OC1/C=C/C=C/C` (stereo unspecified) showed an IC50 of 3.91 µM. With `O=C(CCSc1ccc(Cl)cc1)c1cccs1` the IC50 was > 40 µM (inactive). `Nc1ccc2oc(-c3cccc(-c4nc5cc(N)ccc5o4)n3)nc2c1` showed an IC50 of 26.6 µM. With `Cn1c(=O)n(CCc2ccccc2)c(=O)c2c1nc1n2CCN1Cc1ccccc1` the IC50 was > 40 µM (inactive). Work on `COc1ccc(NC(=O)Cn2c(C)cc(=O)n3nc(-c4cccc(C)c4)nc23)cc1` yielded an IC50 of 37 µM. With `O=C(Nc1ccccc1-c1nc(-c2ccccn2)no1)c1cc(Cl)ccc1Cl` the IC50 was > 40 µM (inactive). `O=C(CNC(=O)OCc1ccccc1)Nc1ccc(Br)cc1C(=O)c1ccccc1Cl` was tested, and the IC50 was > 40 µM (inactive). Compound `COc1cccc2cc(C(=O)Nc3nc(-c4ccncc4)cs3)oc12` has an IC50 of 9.63 µM. `C[C@@H]1OC2=C(C(=O)c3cccc(O)c3C2=O)[C@H](O)[C@@H]1O` was tested, and the IC50 was 6.1 µM. For `COc1ccc(CNC(=O)CN2C(=O)CC(c3ccccc3)=Nc3ccccc32)cc1`, the IC50 was > 40 µM (inactive). In the case of `O=C(Cn1c(=O)n(CCC(=O)NC2CCCC2)c(=O)c2ccccc21)NCc1ccccc1Cl`, the IC50 is reported as > 40 µM (inactive). `Fc1ccccc1-c1nnc(C2(c3ccc4c(c3)OCO4)CCOCC2)o1` was tested, and the IC50 was > 40 µM (inactive). With `CC1NC(=O)C(CC(N)=O)NC(=O)C(C(C)O)NC(=O)C(Cc2ccc(O)cc2)NC(=O)C(C(C)C)NC(=O)C(NC(=O)CC(O)CCCCCCCCCCCCN=C(N)N)C(C)OC1=O` (stereo unspecified) ({Pentadecanoyl(3ξ-OH,15-Gua)}-TVYTNA; ester 1-C; configuration not given here) the IC50 was > 40 µM (inactive). In the case of `COc1ccc(NS(=O)(=O)c2cc(NC(=O)CC(=O)c3ccc([N+](=O)[O-])cc3)ccc2Cl)cc1`, the IC50 is reported as 12.2 µM. With `O=C(NC(Cc1ccccc1)c1nc2ccccc2[nH]1)C1CC1` (stereo unspecified) the IC50 was > 40 µM (inactive). In the case of `COc1ccc(NC2c3ccccc3C(=O)N2c2ccccn2)cc1` (stereo unspecified), the IC50 is reported as > 40 µM (inactive). `NS(=O)(=O)c1cccc(NC(=O)/C=C/c2cn(-c3ccccc3)nc2-c2cccc([N+](=O)[O-])c2)c1` gave an IC50 of 27.4 µM. `O=C(NC1(O)C(=O)c2ccccc2C1=O)c1ccc(-c2csnn2)cc1` showed an IC50 of 9.45 µM. With `O=C(C1=CSCCO1)N1CCc2ccccc2C1` the IC50 was > 40 µM (inactive). In the case of `Nc1ncc(-c2ccc(F)cc2)c(C2CCCN(C(=O)c3ccn[nH]3)C2)n1` (stereo unspecified), the IC50 is reported as > 40 µM (inactive). In the case of `C/C(=C\Cc1c(O)cc(C)c(C=O)c1O)CC[C@@]1(C)[C@H](C)CCC(=O)[C@@H]1C`, the IC50 is reported as > 40 µM (inactive). With `CCc1nnc(C(=O)Nc2ccc(C(=O)NCc3ccc(OC(C)C)cc3)cc2)s1` the IC50 was > 40 µM (inactive). With `COC(=O)c1c(OC)cc2c(c1C)Oc1c(Cl)c(O)c(Cl)c(C)c1C(=O)O2` the IC50 was 17.3 µM. `Cn1cc(NC(=O)Nc2cccc(C(F)(F)F)c2)c2ccccc2c1=O` gave an IC50 of 28.5 µM. In the case of `O=C(Cn1c(COc2ccccc2)nc2ccccc21)Nc1cc(Cl)ccc1Cl`, the IC50 is reported as > 40 µM (inactive). Compound `O=C(Cn1c(=O)c2ccccc2c2ccccc21)Nc1ccc2c(c1)OCO2` has an IC50 of 34.9 µM. With `COc1ccc(-n2ccn3c(CCC(=O)Nc4cccc(C)c4)nnc3c2=O)cc1` the IC50 was > 40 µM (inactive). For `CCC(=O)Nc1nc2cc(NC(=O)Nc3ccccc3Cl)ccc2s1`, the IC50 was > 40 µM (inactive). For `O=c1cc(Cc2ccccc2)nc2c(-c3ccccc3)c(COc3ccccc3)[nH]n12`, the IC50 was “inactive”. For `Cc1ccccc1-c1noc(-c2ccccc2OCC(=O)NC(C)C)n1`, the IC50 was > 40 µM (inactive). For `COc1ccc(N2CC(c3nnc(NC(=O)CCc4ccccc4)s3)CC2=O)cc1` (stereo unspecified), the IC50 was > 40 µM (inactive). `N=C1/C(=C/c2cn(Cc3ccccc3)c3ccccc23)C(=O)N=C2SC(C(F)(F)F)=NN12` was tested, and the IC50 was > 40 µM (inactive). Compound `Cc1cc(C)cc(NC(=O)Nc2ccccc2OCc2cc(=O)n3c(ncn3C(C)C)n2)c1` has an IC50 of 14.3 µM. In the case of `CS(=O)(=O)c1cccc(C(=O)Nc2sc3c(c2C(N)=O)CCCC3)c1`, the IC50 is reported as > 40 µM (inactive). With `Cc1cc(C)c(NC(=O)Cn2c(SCc3cccc(F)c3)nc3cccnc32)c(C)c1` the IC50 was > 40 µM (inactive). For `CNC(=O)c1cc2nc(N(C)C)n(-c3ccc(F)cc3)c2s1`, the IC50 was > 40 µM (inactive). `O=C(c1cnc2[nH][nH]c(=O)c2c1)c1cc(Cl)cc(Cl)c1O` was tested, and the IC50 was 5.78 µM. With `COc1ccc(-c2cc3n(c(=N)c2C#N)CCc2cc4c(cc2-3)OCO4)cc1O` the IC50 was > 40 µM (inactive). In the case of `O=C(COC(=O)c1cccc([N+](=O)[O-])c1)Nc1cccc(Oc2ccccc2)c1`, the IC50 is reported as > 40 µM (inactive).
